Experiments:
[1] = tested on: 19AT-D (DNA, duplex) ACGTCGATTATAGACGAGC/GCTCGTCTATAATCGACGT; assay: native PAGE post-staining; conditions: 20 μM ThT-E stain; no band; fluorescence rise below 3-fold
[2] = tested on: G-tripl-D (DNA, other) GGTTGGTGTGG; assay: native PAGE post-staining; conditions: 20 μM ThT-E stain; no band
[3] = tested on: B-raf-D (DNA, G4) GGGCGGGGAGGGGGAAGGGA; assay: fluorescence light-up; conditions: K+ 40 mM; 20 mM Tris-HCl, pH 7.4; 2 μM ThT-E, 2 μM DNA
[4] = tested on: BCL-2Mid-D (DNA, G4) GGGCGCGGGAGGAATTGGGCGGG; assay: native PAGE post-staining; conditions: 20 μM ThT-E stain; band seen
[5] = tested on: 45Ag-D (DNA, G4) GGGTTAGGGTTAGGGTTAGGGTTAGGGTTAGGGTTAGGGTTAGGG; assay: fluorescence light-up; conditions: K+ 40 mM; 20 mM Tris-HCl, pH 7.4; 2 μM ThT-E, 2 μM DNA; 146-fold
[6] = tested on: dx12-D (DNA, duplex) GCGTGAGTTCGG/CCGAACTCACGC; assay: native PAGE post-staining; conditions: 20 μM ThT-E stain; no band
[7] = tested on: 22Ag-D (DNA, G4) AGGGTTAGGGTTAGGGTTAGGG; assay: ITC; conditions: K+ 40 mM; 20 mM Tris-HCl, pH 7.4; 500 μM ligand into 25 μM DNA
[8] = tested on: VAV1-D (DNA, G4) GGGCAGGGAGGGAACTGGG; assay: ITC; conditions: K+ 40 mM; 20 mM Tris-HCl, pH 7.4; 500 μM ligand into 25 μM DNA
[9] = tested on: TBA-D (DNA, G4) GGTTGGTGTGGTTGG; assay: fluorescence light-up; conditions: K+ 40 mM; 20 mM Tris-HCl, pH 7.4; 2 μM ThT-E, 2 μM DNA
[10] = tested on: Insulin a2-D (DNA, G4) ACAGGGGTGTGGGGACAGGGGTGTGGGG; assay: native PAGE post-staining; conditions: 20 μM ThT-E stain; band seen
[11] = tested on: ssAf17-D (DNA, single strand) CTGAGTTGTATATATTCG; assay: native PAGE post-staining; conditions: 20 μM ThT-E stain; no band; 2.77-fold fluorescence
[12] = tested on: Bulges-TB1 (DNA, G4) TTGTGGTGGGTGGGTGGGT; assay: fluorescence light-up; conditions: K+ 40 mM; 20 mM Tris-HCl, pH 7.4; 2 μM ThT-E; 46.05-fold
[13] = tested on: CT4-D (DNA, G4) GGGCTTTTGGGC; assay: fluorescence light-up; conditions: K+ 40 mM; 20 mM Tris-HCl, pH 7.4; 2 μM ThT-E, 2 μM DNA
[14] = tested on: 21CTA-D (DNA, G4) GGGCTAGGGCTAGGGCTAGGG; assay: native PAGE post-staining; conditions: 20 μM ThT-E stain; band seen
[15] = tested on: ERSI-D (DNA, G4) GGGTAGGGGCAAAGGGGCTGGGG; assay: ITC; conditions: K+ 40 mM; 20 mM Tris-HCl, pH 7.4; 500 μM ligand into 25 μM DNA
[16] = tested on: 32 Kras-D (DNA, G4) AGGGCGGTGTGGGAAGAGGGAAGAGGGGGAGG; assay: fluorescence light-up; conditions: K+ 40 mM; 20 mM Tris-HCl, pH 7.4; 2 μM ThT-E, 2 μM DNA; 125-fold
[17] = tested on: ADAM10-D (DNA, G4) GGGGGACGGGTAGGGGCGGGAGGTAGGGG; assay: fluorescence light-up; conditions: K+ 40 mM; 20 mM Tris-HCl, pH 7.4; 2 μM ThT-E, 2 μM DNA; 159-fold
[18] = tested on: c-myc-D (DNA, G4) TGAGGGTGGGTAGGGTGGGTAA; assay: UV-vis titration; conditions: 2 μM ThT-E, 0 to 8 μM DNA; 23 nm red shift
[19] = tested on: c-myc-D (DNA, G4) TGAGGGTGGGTAGGGTGGGTAA; assay: 1H NMR titration; conditions: K+ 40 mM; phosphate buffer, pH 7.4, 25 °C; stacks on 5'-end G-tetrad
[20] = tested on: 35B1(Kras)-D (DNA, G4) AGGGCGGTGTGGGAAGAGGGAAGAGGGGGAGGCAG; assay: CD titration; conditions: no added salt; 20 mM Tris-HCl, pH 7.4; 0 to 30 μM ThT; induces parallel G4
[21] = tested on: 32 Kras-D (DNA, G4) AGGGCGGTGTGGGAAGAGGGAAGAGGGGGAGG; assay: CD titration; conditions: no added salt; 20 mM Tris-HCl, pH 7.4; 0 to 30 μM ThT; induces parallel G4

For `CCN(CC)c1ccc(-c2sc3cc(C)ccc3[n+]2CC)cc1`, the binding [1] was “no”, the binding [2] was “no” and the binding [3] was “yes”. The binding [4] was “yes”, the binding [5] was “yes” and the binding [6] was “no”. For the same molecule, the dissociation constant [7] was 17.78 µM, the dissociation constant [8] was 74.73 µM and the binding [9] was “weak”. The binding [10] was “yes”, the binding [11] was “no” and the binding [12] was “yes”. The binding [13] was “weak”, the binding [14] was “yes” and the dissociation constant [15] was 56.81 µM. The binding [16] was “yes”, the binding [17] was “yes” and the binding [18] was “yes”. The binding [19] was “yes”.

In the case of `Cc1ccc2c(c1)sc(-c1ccc(N(C)C)cc1)[n+]2C`, the binding [20] is reported as “yes”, the dissociation constant [7] is reported as 22.03 µM and the binding [21] is reported as “yes”. It also gave a dissociation constant [8] of 334.4 µM and a dissociation constant [15] of 233.4 µM.

Source: article PMC5805748 (2018)
